Test results: patent US12516016B2, “GPX4 inhibitors, pharmaceutical compositions thereof, and their use for treating GPX4-mediated diseases” (EUBULUS BIOTHERAPEUTICS (HONG KONG) LIMITED, priority 2020, dated 2026)

test system: hepatocellular carcinoma cell line Hub-7; assay: Cell proliferation assay (CELL-TITER GLO cell viability); assay type: cell-based; details: 24 h, Hub-7 cells, 24 h incubation, read-out: Inhibition of Cell Proliferation EC50
Procedure: The activity of a test compound was determined in a cell proliferation assay using the hepatocellular carcinoma cell line […]. Cells (4,000 cells per well) were seeded in a 96-well tissue culture plate. After incubated overnight, a test compound was added at predetermined concentrations, starting with 10 μM and followed by 3-fold serial dilution. After the cells were incubated for 24 h, cell viability was determined using a CELL-TITER GLO® assay. The CELL-TITER GLO® reagent (50 μL) was added to each well and the luminescence was measured by a multimode microplate reader after a brief period of shaking. EC50 values were determined for the test compound. The results are summarized in Table 1, wherein A represents a value no greater than 100 nM, B represents a value greater than 100 nM but no greater than 500 nM, C represents a value greater than 500 nM but no greater than 2 μM, D represents a value greater than 2 μM but no greater than 10 μM; and E represents a value greater than 10 μM.

| Structure (SMILES) | EC50 |
| --- | --- |
| C#CC(=O)N(c1cccc2nonc12)C(C(=O)NCc1ccccc1)c1ccccc1 (stereo not drawn) [A106, N-(Benzo[c][1,2,5]oxadiazol-4-yl)-N-(2-(benzylamino)-2-oxo-1-phenylethyl)-propiolamide] | 100 to 500 nM |
| C#CC(=O)N(c1ccc(C(=O)OC)cc1)C(C(=O)NC(C)(C)C)c1ccc(N)cc1 (stereo not drawn) [A14, Methyl 4-(N-(1-(4-aminophenyl)-2-(tert-butylamino)-2-oxoethyl)-propiolamido)-benzoate] | ≤ 100 nM |
| C#CC(=O)N(c1ccc(NC(C)=O)cc1)C(C(=O)NC(C)(C)C)c1cccc(N)c1 (stereo not drawn) [A23, N-(4-Acetamidophenyl)-N-(1-(3-aminophenyl)-2-(tert-butylamino)-2-oxoethyl)-propiolamide] | 2000 to 10000 nM |
| O=C(C#CCO)N(c1cccc(Cl)c1)C1(C(=O)NCc2ccccc2)CCOCC1 [A129, N-Benzyl-4-(N-(3-chlorophenyl)-4-hydroxybut-2-ynamido)tetrahydro-2H-pyran-4-carboxamide] | > 10000 nM |
| C#CC(=O)N(c1ccc(O)cc1)C(C(=O)NC(C)(C)C)c1cccc(N)c1 (stereo not drawn) [A27, N-(1-(3-Aminophenyl)-2-(tert-butylamino)-2-oxoethyl)-N-(4-hydroxyphenyl)-propiolamide] | 2000 to 10000 nM |
| C#CC(=O)N(c1ccn2cnnc2c1)C1(C(=O)NCc2ccccc2)CCOCC1 [A163, 4-(N-([1,2,4]Triazolo[4,3-a]pyridin-7-yl)propiolamido)-N-benzyltetrahydro-2H-pyran-4-carboxamide] | 500 to 2000 nM |
| C#CC(=O)N(c1cccc(Cl)c1)C1(C(=O)NCc2ccccc2)CCCC(O)C1 (stereo not drawn) [A171, N-Benzyl-1-(N-(3-chlorophenyl)propiolamido)-3-hydroxycyclohexane-carboxamide] | 2000 to 10000 nM |
| C#CC(=O)N(c1ccc(Cl)cc1)C(C(=O)NC(C)(C)C)c1ccc(N)cc1 (stereo not drawn) [A4, N-(1-(4-Aminophenyl)-2-(tert-butylamino)-2-oxoethyl)-N-(4-chlorophenyl)-propiolamide] | 100 to 500 nM |
| C#CC(=O)N(c1cccc(-c2cc[nH]n2)c1)C(C(=O)NCc1ccccc1)c1ccccc1 (stereo not drawn) [A134, N-(3-(1H-Pyrazol-3-yl)phenyl)-N-(2-(benzylamino)-2-oxo-1-phenylethyl)-propiolamide] | ≤ 100 nM |
| C#CC(=O)N(c1cc(Cl)ccc1I)C(C(=O)NCc1ccccc1)c1ccccc1 (stereo not drawn) [A91, N-(2-(Benzylamino)-2-oxo-1-phenylethyl)-N-(5-chloro-2-iodophenyl)-propiolamide] | ≤ 100 nM |
| CC#CC(=O)N(c1cncc(Cl)c1)C(C(=O)NCc1ccccc1)c1ccccc1 (stereo not drawn) [A133, N-(2-(Benzylamino)-2-oxo-1-phenylethyl)-N-(5-chloropyridin-3-yl)but-2-ynamide] | > 10000 nM |
| C#CC(=O)N(c1ccc(OC)cc1)C(C(=O)NC(C)(C)C)c1cccc(N)c1 (stereo not drawn) [A29, N-(1-(3-Aminophenyl)-2-(tert-butylamino)-2-oxoethyl)-N-(4-methoxyphenyl)-propiolamide] | 500 to 2000 nM |
| C#CC(=O)N(c1cccc(-c2cc[nH]n2)c1)C1(C(=O)NCc2ccccc2)CCOCC1 [A135, 4-(N-(3-(1H-Pyrazol-3-yl)phenyl)propiolamido)-N-benzyltetrahydro-2H-pyran-4-carboxamide] | 100 to 500 nM |
| C[Si](C)(C)C#CC(=O)N(c1cccc(Cl)c1)C1(C(=O)NCc2cccc(Cl)c2)CCOCC1 [A195, N-(3-Chlorobenzyl)-4-(N-(3-chlorophenyl)-3-(trimethylsilyl)propiolamido)-tetrahydro-2H-pyran-4-carboxamide] | ≤ 100 nM |
| C#CC(=O)N(c1cccc(Cl)c1)C(C(=O)NCc1ccccc1)C1CCC(C(=O)OC)CC1 (stereo not drawn) [A77, Methyl 4-(2-(benzylamino)-1-(N-(3-chlorophenyl)propiolamido)-2-oxoethyl)-cyclohexane-1-carboxylate] | 100 to 500 nM |
| C#CC(=O)N(c1cccc(F)c1)C(C(=O)NCc1ccccc1)c1ccc(N)cc1 (stereo not drawn) [A59, N-(1-(4-Aminophenyl)-2-(benzylamino)-2-oxoethyl)-N-(3-fluorophenyl)-propiolamide] | 100 to 500 nM |
| C#CC(=O)N(c1cccc(Cl)c1)C(C(=O)NCc1ccccc1)c1ccccc1 (stereo not drawn) [A74, N-(2-(Benzylamino)-2-oxo-1-phenylethyl)-N-(3-chlorophenyl)propiolamide] | ≤ 100 nM |
| CC#CC(=O)N(c1ccc(Cl)c(Cl)c1)C(C(=O)NCc1ccccc1)c1ccccc1 (stereo not drawn) [A132, N-(2-(Benzylamino)-2-oxo-1-phenylethyl)-N-(3,4-dichlorophenyl)but-2-ynamide] | > 10000 nM |
| C#CC(=O)N(c1ccc(OC)cc1)C(C(=O)NCc1ccccc1)c1ccc(N)cc1 (stereo not drawn) [A60, N-(1-(4-Aminophenyl)-2-(benzylamino)-2-oxoethyl)-N-(4-methoxyphenyl)-propiolamide] | ≤ 100 nM |
| C#CC(=O)N(c1ccc(S(N)(=O)=O)cc1)C(C(=O)NCc1ccccc1)c1cccc(N)c1 (stereo not drawn) [A50, N-(1-(3-Aminophenyl)-2-(benzylamino)-2-oxoethyl)-N-(4-sulfamoylphenyl)-propiolamide] | > 10000 nM |
| C#CC(=O)N(c1cccc(Cl)c1)C(C(=O)NCc1ccccc1)c1cccc(CCO)c1 (stereo not drawn) [A95, N-(2-(Benzylamino)-1-(3-(2-hydroxyethyl)phenyl)-2-oxoethyl)-N-(3-chloro-phenyl)propiolamide] | 100 to 500 nM |

Further lines, results first:

| EC50 | Structure (SMILES) |
| --- | --- |
| > 10000 nM | C#CC(=O)N(c1cccc(Cl)c1)C1(C(=O)NCC(=O)O)CCOCC1 [A192, 2-(4-(N-(3-Chlorophenyl)propiolamido)tetrahydro-2H-pyran-4-carboxamido)-acetic acid] |
| ≤ 100 nM | COc1ccc(N(C(=O)CCl)C2(C(=O)NCCc3ccccc3)CCOCC2)cc1Cl [C26, 4-(2-Chloro-N-(3-chloro-4-methoxyphenyl)acetamido)-N-phenethyltetrahydro-2H-pyran-4-carboxamide] |
| > 10000 nM | CCC(=O)N(c1cccc(Cl)c1)C(C(=O)NCc1ccccc1)c1ccc(N)cc1 (stereo not drawn) [D4, N-(1-(4-Aminophenyl)-2-(benzylamino)-2-oxoethyl)-N-(3-chlorophenyl)-propionamide] |
| 100 to 500 nM | C#CC(=O)N(c1cccc(Cl)c1)C1(C(=O)NCC(=O)NCc2ccccc2Cl)CCOCC1 [A187, N-(2-((2-Chlorobenzyl)amino)-2-oxoethyl)-4-(N-(3-chlorophenyl)propiolamido)-tetrahydro-2H-pyran-4-carboxamide] |
| > 10000 nM | C=CC(=O)N(CCc1ccccc1)C1(C(=O)NCc2ccccc2)CCOCC1 [B6, N-Benzyl-4-(N-phenethylacrylamido)tetrahydro-2H-pyran-4-carboxamide] |
| 500 to 2000 nM | Cn1ncc2cc(N(C(=O)CCl)C3(C(=O)NCc4ccccc4)CCOCC3)ccc21 [C21, N-Benzyl-4-(2-chloro-N-(1-methyl-1H-indazol-5-yl)acetamido)tetrahydro-2H-pyran-4-carboxamide] |
| 100 to 500 nM | O=C(CCl)N(c1cccc2nsnc12)C1(C(=O)NCc2ccccc2)CCOCC1 [C28, 4-(N-(Benzo[c][1,2,5]thiadiazol-4-yl)-2-chloroacetamido)-N-benzyltetrahydro-2H-pyran-4-carboxamide] |
| 2000 to 10000 nM | O=C(NCCc1ccccc1)C(c1ccc([N+](=O)[O-])cc1)N(C(=O)CCl)c1cccc(O)c1 (stereo not drawn) [C9, 2-Chloro-N-(3-hydroxyphenyl)-N-(1-(4-nitrophenyl)-2-oxo-2-(phenethylamino)-ethyl)acetamide] |
| 500 to 2000 nM | Cn1ncc2cc(N(C(=O)CCl)C3(C(=O)NCCc4ccccc4)CCOCC3)ccc21 [C22, 4-(2-Chloro-N-(1-methyl-1H-indazol-5-yl)acetamido)-N-phenethyltetrahydro-2H-pyran-4-carboxamide] |
